US6958358B2, “Inhibitors of cruzipain and other cysteine proteases” (Amura Therapeutics Limited, priority 2001, dated 2005)

Experiments:
Human Cathepsin K = target: T1, Human Cathepsin K (Homo sapiens, UniProt P43235); assay: Cathepsin peptidase activity assay, human cathepsin K; type: biochemical; conditions: pH 5.5; Z-Leu-Arg-AMC; 25±1° C.
T1 construct: Dr. Boris Turk (Josef Stefan Institute, Ljubljana, Slovenia), obtained from an academic laboratory, not a commercial vendor
T1 sequence (P43235 115-329): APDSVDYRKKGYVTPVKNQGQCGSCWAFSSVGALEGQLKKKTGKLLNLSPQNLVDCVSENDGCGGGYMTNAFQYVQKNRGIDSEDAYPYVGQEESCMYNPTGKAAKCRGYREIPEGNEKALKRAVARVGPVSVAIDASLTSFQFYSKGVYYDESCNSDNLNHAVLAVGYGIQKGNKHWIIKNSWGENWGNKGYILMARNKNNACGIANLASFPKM
Protocol: (§1) Assay protocols were based on literature precedent (Table1; Barrett, A. J., Rawlings, N. D. and Woessner, J. F., 1998, Handbook of Proteolytic Enzymes, Academic Press, London and references therein) and modified as required to suit local assay protocols. Enzyme was added as required to initiate the reaction and the activity, as judged by the change in fluorescence upon conversion of substrate to product, was monitored over time. All assays were carried out at 25±1° C.
(§2) Bovine cathepsin S, human cathepsin L, human cathepsin H and human cathepsin B were obtained from CN Biosciences. Recombinant human cathepsin S, human cathepsin K and human cathepsin X were obtained from Dr. Boris Turk (Josef Stefan Institute, Ljubljana, Slovenia). Unless otherwise stated, all peptidase activity assays were carried out in 10 mM bis-tris-propane (BTP), pH 6.5 containing 1 mM […], 5 mM 2-mercaptoethanol and 1 mM CaCl2. Human cathepsin H activity assays were carried out in 10 mM BTP pH 6.5, 142 mM […], 1 mM CaCl2, 1 mM EDTA, 1 mM DTT, 0.035 mM Zwittergent 3-16. […] The rate of conversion of substrate to product was derived from the slope of the increase in fluorescence monitored continuously over time.
(§3) The apparent inhibition constant (Ki) for each compound was determined on the basis that inhibition was reversible and occurred by a pure-competitive mechanism. The Ki values were calculated, from the dependence of enzyme activity as a function of inhibitor concentration, by direct regression analysis (Prism v 3.02) using Equation 2 (Cornish-Bowden, A., 1995.). […]
(§4) In situations where the apparent dissociation constant (Ki^app) approached the enzyme concentrations, the Ki^app values were calculated using a quadratic solution in the form described by Equation 3 (Morrison, J. F. Trends Biochem. Sci., 7, 102-105, 1982; Morrison, J. F. Biochim. Biophys. Acta, 185, 269-286, 1969; Stone, S. R. and Hofsteenge, J. Biochemistry, 25, 4622-4628, 1986). […]

Human Cathepsin L = target: T2, Human Cathepsin L (Homo sapiens, UniProt P07711); assay: Cathepsin peptidase activity assay, human cathepsin L; type: biochemical; conditions: pH 6.5; Ac-Phe-Arg-AMC; 25±1° C.
T2 construct: purchased CN Biosciences
T2 sequence (P07711 114-333): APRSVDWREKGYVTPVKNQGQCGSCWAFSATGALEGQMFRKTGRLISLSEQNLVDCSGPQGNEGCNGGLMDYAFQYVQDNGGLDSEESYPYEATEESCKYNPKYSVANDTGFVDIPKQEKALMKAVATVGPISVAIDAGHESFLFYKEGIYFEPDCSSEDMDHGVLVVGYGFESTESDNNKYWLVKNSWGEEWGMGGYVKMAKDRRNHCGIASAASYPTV
Protocol: as §1, §2, §3, §4

Cruzipain = target: T3, Cruzipain (Trypanosoma cruzi, UniProt P25779); assay: Trypanosoma cruzi cruzipain peptidase activity assay; type: biochemical; conditions: wild-type cruzipain from T. cruzi Dm28 epimastigotes; pH 6.75; 25±1° C.
T3 construct: Wild-type cruzipain, derived from Trypanosoma cruzi Dm28 epimastigotes; tissue Dr. Julio Scharfstein (Instituto de Biofisica Carlos Chagas Filho, Universidade Federal do Rio de Janeiro); host or cells: Trypanosoma cruzi Dm28 epimastigotes
T3 sequence (P25779 123-467): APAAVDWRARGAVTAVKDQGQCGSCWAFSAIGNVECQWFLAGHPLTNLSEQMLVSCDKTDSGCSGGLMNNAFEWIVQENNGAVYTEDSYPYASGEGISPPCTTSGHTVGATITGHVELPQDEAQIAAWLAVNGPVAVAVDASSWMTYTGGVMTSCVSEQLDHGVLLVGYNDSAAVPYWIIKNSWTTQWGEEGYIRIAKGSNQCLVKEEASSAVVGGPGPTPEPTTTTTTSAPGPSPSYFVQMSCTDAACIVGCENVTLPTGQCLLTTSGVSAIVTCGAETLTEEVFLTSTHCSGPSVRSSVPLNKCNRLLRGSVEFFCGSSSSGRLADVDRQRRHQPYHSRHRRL
Protocol: as §1
Wild-type cruzipain, derived from Trypanosoma cruzi Dm28 epimastigotes, was obtained from Dr. Julio Scharfstein (Instituto de Biofisica Carlos Chagas Filho, Universidade Federal do Rio de Janeiro, Rio de Janeiro, Brazil). Activity assays were carried out in 100 mM sodium phosphate, pH 6.75 containing 1 mM EDTA and 10 mM L-cysteine using […] enzyme. Ac-Phe-Arg-AMC (KM^app≈12 μM) and D-Val-Leu-Lys-AMC (KM^app≈4 μM) were used as the substrates. Routinely, Ac-FR-AMC was used at a concentration equivalent to KM^app and D-Val-Leu-Lys-AMC was used at a concentration of 25 μM. The rate of conversion of substrate to product was derived from the slope of the increase in fluorescence monitored continuously over time.
as §3, with “1995.). [formula]” for “1995.).”
as §4

Bovine Cathepsin S = target: T4, Bovine Cathepsin S (Bos taurus, UniProt P25326); assay: Cathepsin peptidase activity assay, bovine cathepsin S; type: biochemical; conditions: pH 6.5; boc-Val-Leu-Lys-AMC; 25±1° C.
T4 construct: purchased CN Biosciences
T4 sequence (P25326 115-331): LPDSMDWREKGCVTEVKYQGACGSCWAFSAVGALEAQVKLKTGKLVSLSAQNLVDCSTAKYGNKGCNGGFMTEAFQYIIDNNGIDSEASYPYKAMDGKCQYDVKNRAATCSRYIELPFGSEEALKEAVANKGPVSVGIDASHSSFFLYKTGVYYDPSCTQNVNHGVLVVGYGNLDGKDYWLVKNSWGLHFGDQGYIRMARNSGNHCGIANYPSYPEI
Protocol: as §1, §2, §3, §4

Trypanosoma cruzi = conditions: added to Trypanosoma cruzi-infected mammalian cell cultures; cited from earlier work
[1] = system: Trypanosoma cruzi infection; conditions: cited from earlier work

| SMILES | Ki (Human Cathepsin K) | Ki (Human Cathepsin L) | Ki (Cruzipain) | Ki (Bovine Cathepsin S) | effect on replication and differentiation of the parasite (Trypanosoma cruzi) | cure during the acute phase of infection [1] |
| --- | --- | --- | --- | --- | --- | --- |
| CC(C)(C)c1ccc(C(=O)N[C@@H](Cc2ccc(O)cc2)C(=O)N[C@]23CCC[C@H]2OCC3=O)cc1 [Example 1, (3aR, 6aR) 4-tert-Butyl-N-[2-(4-hydroxyphenyl)-1S-(3-oxo-hexahydrocyclopenta[b]furan-3a-ylcarbamoyl)-ethyl]benzamide] | > 100 µM | > 20 µM | < 2 µM | > 50 µM | – | – |
| CC(NC(=O)C(Cc1ccccc1)NC(=O)OCc1ccccc1)C(=O)CF (stereo not drawn) [Z-Phe-Ala-FMK] | – | – | – | – | blocked replication and differentiation of the parasite | – |
| O=C(Cn1ccnc1[N+](=O)[O-])NCc1ccccc1 [benznidazole] | – | – | – | – | – | ~60% |

Now from value to molecule, other results behind:

| Ki (Human Cathepsin K) | Ki (Human Cathepsin L) | Ki (Cruzipain) | Ki (Bovine Cathepsin S) | SMILES | effect on replication and differentiation of the parasite (Trypanosoma cruzi) | cure during the acute phase of infection [1] |
| --- | --- | --- | --- | --- | --- | --- |
| < 2 µM | > 10 µM | > 20 µM | > 25 µM | CC(C)C[C@H](NC(=O)c1cc2ccccc2s1)C(=O)N[C@]12CCC[C@H]1OCC2=O [Example 6, (3aR, 6aR) Benzo[b]thiophene-2-carboxylic acid [3-methyl-1S-(3-oxo-hexahydrocyclopenta[b]furan-3a-ylcarbamoyl)butyl]amide] | – | – |
| > 50 µM | > 25 µM | > 50 µM | < 2 µM | O=C(N[C@@H](CC1CCCCC1)C(=O)N[C@]12CCC[C@H]1OCC2=O)c1ccsc1 [Example 7, (3aR, 6aR) Thiophene-3-carboxylic acid [2-cyclohexyl-1S-(3-oxo-hexahydrocyclopenta[b]furan-3a-ylcarbamoyl)ethyl]amide] | – | – |
